pEC50: −log10 of the molar value. Where two headings read alike, the source gives them in different places. Some results are limits rather than exact numbers.

In one assay the target is T1, human PPARα (Homo sapiens, UniProt Q07869).
T1 construct: human PPAR 167-468 (PPARα), 138-440 (NUC-1) and 174-475 (PPARY) amino acid regions; expressed in transfected cells; host or cells: CV-1 (ATCC CCL-70D)
T1 sequence (Q07869 167-468): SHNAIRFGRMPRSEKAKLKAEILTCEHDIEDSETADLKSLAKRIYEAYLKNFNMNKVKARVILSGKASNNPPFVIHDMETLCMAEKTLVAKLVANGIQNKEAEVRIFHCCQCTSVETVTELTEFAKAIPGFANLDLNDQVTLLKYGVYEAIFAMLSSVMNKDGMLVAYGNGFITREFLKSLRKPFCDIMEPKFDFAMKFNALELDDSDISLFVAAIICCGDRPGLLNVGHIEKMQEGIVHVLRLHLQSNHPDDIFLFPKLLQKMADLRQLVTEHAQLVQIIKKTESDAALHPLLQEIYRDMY
The experiment in a line: Measurement of transcriptional activity (GAL4-PPAR LBD chimera, PLAP reporter, CV-1 cells). It counts as cell-based. The method, then:
(§1) Measurement of Transcriptional Activity
(§2) As the reporter gene, PLAP (Placental Alkaline Phosphatase) was used, and this was ligated downstream of a TK promoter containing a 5-copy GAL4 DNA binding element to construct a vector. As host cells, CV-1 (ATCC CCL-70D) was used. That is, CV-1 cells were spread at a density of 5×10^5 cells on a 35-mm dish and cultured in 10% FCS/DMEM for 24 hours, and using FuGENE 6 transfection reagent, the cells were co-transfected with the GAL4-PPAR LBD expression vector and GAL4 DBD-TK-PLAP expression vector. 24 hours after this transfection, the cells were spread again on a 96-well plate at a density of 1×10^4/well and further cultured for 24 hours. After 24 hours, the medium was exchanged with DMEM containing 10% FCS, which was previously treated at 65° C. for inactivating intrinsic alkaline phosphatase, and a test compound was added at an arbitrary concentration. […] The […] was determined after adding 50 μl assay buffer and 50 μl chemoluminescence substrate to 10 μl culture supernatant and incubating the mixture at room temperature for 1 hour.

The target of another assay is T2, human PPARβ (NUC-1) (Homo sapiens, UniProt Q03181).
T2 construct: human PPAR 167-468 (PPARα), 138-440 (NUC-1) and 174-475 (PPARY) amino acid regions; expressed in transfected cells; host or cells: CV-1 (ATCC CCL-70D)
T2 sequence (Q03181 138-440): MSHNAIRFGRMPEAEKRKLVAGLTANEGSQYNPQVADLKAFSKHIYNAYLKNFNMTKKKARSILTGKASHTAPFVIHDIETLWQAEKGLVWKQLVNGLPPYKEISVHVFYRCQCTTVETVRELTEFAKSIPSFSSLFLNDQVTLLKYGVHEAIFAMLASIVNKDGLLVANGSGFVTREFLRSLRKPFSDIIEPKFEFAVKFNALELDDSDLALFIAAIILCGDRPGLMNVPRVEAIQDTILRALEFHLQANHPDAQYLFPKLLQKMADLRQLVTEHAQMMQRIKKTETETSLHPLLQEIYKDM
The description is as above. It counts as cell-based. As to the method: as §1, §2

The next assay concerns the target T3, human PPARγ (Homo sapiens, UniProt P37231).
T3 construct: human PPAR 167-468 (PPARα), 138-440 (NUC-1) and 174-475 (PPARY) amino acid regions; expressed in transfected cells; host or cells: CV-1 (ATCC CCL-70D)
T3 sequence (P37231 204-505): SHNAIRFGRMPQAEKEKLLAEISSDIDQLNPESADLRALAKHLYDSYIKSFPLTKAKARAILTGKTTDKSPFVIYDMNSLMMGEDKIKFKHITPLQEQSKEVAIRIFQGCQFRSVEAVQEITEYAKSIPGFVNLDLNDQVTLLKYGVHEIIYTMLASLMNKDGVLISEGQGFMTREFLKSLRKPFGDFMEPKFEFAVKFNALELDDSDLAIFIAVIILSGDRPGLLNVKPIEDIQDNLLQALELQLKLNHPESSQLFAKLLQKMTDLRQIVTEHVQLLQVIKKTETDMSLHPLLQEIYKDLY
The assay is described as above. The following applies: PLAP activity 24 hours after addition of the compound, read-out: Transcriptional activities EC50 PRAR γ. The assay is classed as cell-based. The method, then:
as §1, §2

For a further assay, the system named is male db/db mice. In words: Measurement of blood sugar reduction, blood triglyceride reduction and blood free fatty acid reduction in db/db mice. The following applies: in vivo db/db mice, day 9 after administration, oral once a day. As to the method:
Measurement of Blood Sugar Reduction, Blood Triglyceride Reduction and Blood Free Fatty Acid Reduction
Blood, was collected through a tail vein after the mice were fasted for 1 hour, before administration, and on Day 4 and Day 9 after administration, respectively. On Day 10, an oral glucose loading test was conducted; in this test, the mice were fasted overnight from the previous day, and in the next morning, 2 g/kg glucose was given to the mice. Plasma glucose, triglycerides (TG), free fatty acid (NEFA) were measured by using commercial kits, that is, Glucose C-II Test Wako (trade name) (Wako Pure Chemical Industries, Ltd., Tokyo), Deteminer L TG II (trade name) (Kyowa Medex, Tokyo) and NEFA C-Test Wako (Wako Pure Chemical Industries, Ltd., Tokyo), respectively.

Where [1] appears, read: CV-1 cells, GAL4-PPAR LBD chimera, PLAP activity 24 hours after addition of the compound, read-out: Transcriptional activities EC50 PRAR α.
[2] abbreviates: CV-1 cells, GAL4-PPAR LBD chimera, PLAP activity 24 hours after addition of the compound, read-out: Transcriptional activities EC50 PRAR β.

The term pEC50 denotes the negative decadic logarithm of the EC50, by convention in mol/L. As for `CCC(Cc1ccc(OC)c(NC(=O)Cc2ccc(C(F)(F)F)c(F)c2)c1)C(=O)O` (centres unmarked) [Example 18d), 2-(4-Methoxy-3-{[2-(3-fluoro-4-trifluoromethylphenyl)acetyl]amino}benzyl)butanoic acid], the pEC50 at human PPARα (setting [1]) was 6.79; at human PPARβ (NUC-1) (setting [2]), 5.09; at human PPARγ it was < 5.00.

As to `COc1ccc(C[C@H](OC(C)C)C(=O)O)cc1CNC(=O)c1ccc(Cl)cc1Cl` [Example 37e), (2S)-3-[3-([2,4-dichlorobenzoyl]aminomethyl)-4-methoxyphenyl]-2-isopropoxypropanoic acid], in the assay on male db/db mice (1 mg/kg/day (*)), the “Blood free fatty acid reduction (%)” value came out at 70.2%. The “Blood sugar reduction (%)” value with male db/db mice (1 mg/kg/day (*)) is 48.1%. Further, the “Blood triglycerides reduction (%)” value in the assay on male db/db mice (1 mg/kg/day (*)) stood at 68.3%. The figures for the pEC50 on human PPARα (setting [1]), on human PPARβ (NUC-1) (setting [2]) and at human PPARγ were 7.55, 6.36 and 7.80, respectively.

With `COc1ccc(CC(OC(C)C)C(=O)O)cc1C(=O)NCc1ccc(C(F)(F)F)cc1` (centres unmarked) [Example 2d), 2-Isopropoxy-3-(4-methoxy-3-({[4-(trifluoromethyl)benzyl]amino}carbonyl)phenyl)propanoic acid], in the assay with male db/db mice (30 mg/kg/day), the “Blood free fatty acid reduction (%)” value is listed as 46.7%, the “Blood sugar reduction (%)” value worked out at 44.6% and the “Blood triglycerides reduction (%)” value was found to be 71.6%. Further, at human PPARα (setting [1]), the pEC50 was 7.10. The pEC50 at human PPARβ (NUC-1) (setting [2]) is 5.60. Moreover, on human PPARγ, the pEC50 was 6.42.

For the compound `CCCOC(Cc1ccc(OC)c(C(=O)NCc2ccc(C(F)(F)F)cc2)c1)C(=O)O` (centres unmarked) [Example 9d), 3-[4-methoxy-3-({[4-(trifluoromethyl)benzyl]amino}carbonyl)phenyl]-2-propoxypropanoic acid], in the assay with male db/db mice (30 mg/kg/day), the “Blood free fatty acid reduction (%)” value is 62.9%, the “Blood sugar reduction (%)” value is 46.1% and the “Blood triglycerides reduction (%)” value came to 80.4%. Further, the pEC50 on human PPARα (setting [1]) was 6.15. For the same compound, the pEC50 on human PPARβ (NUC-1) (setting [2]) is < 4.52. Also, the pEC50 on human PPARγ was 6.13.

Regarding `CCC(Cc1ccc(OC)c(C(=O)NCc2ccc(C(F)(F)F)cc2)c1)C(=O)O` (centres unmarked) [Example 5d), 2-[4-Methoxy-3-({[4-(trifluoromethyl)benzyl]amino}carbonyl)benzyl)butanoic acid], in the assay on male db/db mice (30 mg/kg/day), the “Blood free fatty acid reduction (%)” value is given as 65.5%, the “Blood sugar reduction (%)” value was 53.6% and the “Blood triglycerides reduction (%)” value came to 58.8%. The compound further had a pEC50 at human PPARα of 6.40. Further, the pEC50 on human PPARβ (NUC-1) is 6.10.

As for `COc1ccc(C[C@H](OC(C)C)C(=O)O)cc1CNC(=O)c1ccc(C(F)(F)F)cc1F` [Example 36g), (2S)-3-[3-([2-fluoro-4-(trifluoromethyl)benzoyl]aminomethyl)-4-methoxyphenyl]-2-isopropoxypropanoic acid], in the assay on male db/db mice (1 mg/kg/day (*)), the “Blood free fatty acid reduction (%)” value is 54.0%, the “Blood sugar reduction (%)” value is 51.5% and the “Blood triglycerides reduction (%)” value is 55.2%. Further, the pEC50 on human PPARα (setting [1]) is 7.92. In addition, the pEC50 on human PPARβ (NUC-1) (setting [2]) is 7.43. Besides, the pEC50 at human PPARγ was 7.33.

`COc1ccc(CC(OC(C)(C)C)C(=O)O)cc1C(=O)NCc1ccc(C(F)(F)F)cc1` (centres unmarked) [Example 3d), 2-tert-Butoxy-3-(4-methoxy-3-({[4-(trifluoromethyl)benzyl]amino}carbonyl)phenyl)propanoic acid]: in the assay on male db/db mice (30 mg/kg/day), the “Blood free fatty acid reduction (%)” value was 47%, the “Blood sugar reduction (%)” value is reported as 27.5% and the “Blood triglycerides reduction (%)” value was 63.8%. On human PPARα (setting [1]), the pEC50 was 7.06. In addition, at human PPARβ (NUC-1) (setting [2]), the pEC50 was 5.29. Moreover, the pEC50 at human PPARγ was 6.66.
